Data taken from the supplement of paper PMC10307832.

Each cell line was assayed with CC1(COc2ccc3c(c2)ncn3-c2ccc3cccc(N4CCC(N)CC4)c3n2)COC1 [Crenolanib] + COc1cc2c(Oc3ccc(NC(=O)C4(C(=O)Nc5ccc(F)cc5)CC4)cc3F)ccnc2cc1OCCCN1CCOCC1 [Foretinib] (partner 0.25 µM) (assay: relative viability (nuclei count vs DMSO), 5 days (fraction); higher = more cells survive). Conditions: first compound 0.01 µM.
Method in brief: (§1)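 Lung cancer cell lines in 1536-well plates were dosed by pin tool the day after seeding, either with one drug alone or with a fixed anchor-drug dose plus five library-drug doses (not always all listed) in √10 steps. After 5 days, cells were fixed and their nuclei stained in one step (final 0.05% Triton X-100, 1% formaldehyde, 1 ug/ml Hoechst), then counted on 4× images. Relative viability is the nuclei count in treated wells divided by that in vehicle wells. Values are medians of duplicate plates.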

Cell Line	relative viability
PC-3 [JPC-3]	1.16
EKVX	1
LCLC-103H	0.947
NCI-H1944	0.857
NCI-H1993	0.768
ABC-1	1.43
NCI-H358	0.816
RERF-LC-KJ	0.852

Same assay, conditions: first compound 0.03162 µM

Cell Line	relative viability
PC-3 [JPC-3]	1.12
EKVX	0.71
LCLC-103H	0.88
NCI-H1944	0.865
NCI-H1993	0.551
ABC-1	0.889
NCI-H358	0.666
RERF-LC-KJ	0.838

Same assay, conditions: first compound 0.1 µM

Cell Line	relative viability
PC-3 [JPC-3]	0.955
EKVX	0.802
LCLC-103H	0.874
NCI-H1944	0.872
NCI-H1993	0.719
ABC-1	1.13
NCI-H358	0.634
RERF-LC-KJ	0.906

Same assay, conditions: first compound 0.3162 µM

Cell Line	relative viability
PC-3 [JPC-3]	1.05
EKVX	0.796
LCLC-103H	0.826
NCI-H1944	0.887
NCI-H1993	0.889
ABC-1	1.12
NCI-H358	0.701
RERF-LC-KJ	0.968

Same assay, conditions: first compound 1 µM

Cell Line	relative viability
PC-3 [JPC-3]	1.03
EKVX	0.757
LCLC-103H	0.622
NCI-H1944	0.817
NCI-H1993	0.731
ABC-1	1.46
NCI-H358	0.567
RERF-LC-KJ	0.909

Each cell line was assayed with CC1(COc2ccc3c(c2)ncn3-c2ccc3cccc(N4CCC(N)CC4)c3n2)COC1 [Crenolanib] + Cc1cc(Nc2cc(N3CCN(C)CC3)nc(Sc3ccc(NC(=O)C4CC4)cc3)n2)n[nH]1 [Tozasertib] (partner 0.1 µM) in the same assay as above. Conditions: first compound 0.01 µM.
Method in brief: as §1

Cell Line	relative viability
PC-3 [JPC-3]	0.889
EKVX	0.465
LCLC-103H	0.46
NCI-H1944	0.251
NCI-H1993	0.639
ABC-1	0.177
NCI-H358	0.0999
RERF-LC-KJ	0.532

Same assay, conditions: first compound 0.03162 µM

Cell Line	relative viability
PC-3 [JPC-3]	0.856
EKVX	0.346
LCLC-103H	0.588
NCI-H1944	0.248
NCI-H1993	0.588
ABC-1	0.202
NCI-H358	0.097
RERF-LC-KJ	0.469

Same assay, conditions: first compound 0.1 µM

Cell Line	relative viability
PC-3 [JPC-3]	0.81
EKVX	0.428
LCLC-103H	0.448
NCI-H1944	0.261
NCI-H1993	0.572
ABC-1	0.179
NCI-H358	0.0998
RERF-LC-KJ	0.527

Same assay, conditions: first compound 0.3162 µM

Cell Line	relative viability
PC-3 [JPC-3]	0.902
EKVX	0.364
LCLC-103H	0.359
NCI-H1944	0.242
NCI-H1993	0.579
ABC-1	0.162
NCI-H358	0.0966
RERF-LC-KJ	0.487

Same assay, conditions: first compound 1 µM

Cell Line	relative viability
PC-3 [JPC-3]	0.87
EKVX	0.359
LCLC-103H	0.458
NCI-H1944	0.234
NCI-H1993	0.543
ABC-1	0.133
NCI-H358	0.12
RERF-LC-KJ	0.461

What follows are cell lines tested with CC1(COc2ccc3c(c2)ncn3-c2ccc3cccc(N4CCC(N)CC4)c3n2)COC1 [Crenolanib] + NC(=O)Nc1cc(-c2cccc(F)c2)sc1C(=O)N[C@H]1CCCNC1 [AZD7762] (partner 0.2 µM) in the same assay as above. Conditions: first compound 0.01 µM.
Method in brief: as §1

Cell Line	relative viability
PC-3 [JPC-3]	0.761
EKVX	0.733
LCLC-103H	0.758
NCI-H1944	0.551
NCI-H1993	0.843
NCI-H358	0.577
RERF-LC-KJ	1.19

Same assay, conditions: first compound 0.03162 µM

Cell Line	relative viability
EKVX	0.779
LCLC-103H	0.761
NCI-H1944	0.587
NCI-H1993	0.802
ABC-1	0.776
NCI-H358	0.67
RERF-LC-KJ	0.739

Same assay, conditions: first compound 0.1 µM

Cell Line	relative viability
PC-3 [JPC-3]	0.832
EKVX	0.731
LCLC-103H	0.714
NCI-H1944	0.534
NCI-H1993	0.889
ABC-1	0.961
NCI-H358	0.465
RERF-LC-KJ	0.896

Same assay, conditions: first compound 0.3162 µM

Cell Line	relative viability
PC-3 [JPC-3]	0.78
EKVX	0.841
LCLC-103H	0.759
NCI-H1944	0.605
NCI-H1993	0.974
ABC-1	1.01
NCI-H358	0.537
RERF-LC-KJ	0.894

Same assay, conditions: first compound 1 µM

Cell Line	relative viability
PC-3 [JPC-3]	0.752
EKVX	0.761
LCLC-103H	0.702
NCI-H1944	0.497
NCI-H1993	0.688
ABC-1	0.902
NCI-H358	0.584
RERF-LC-KJ	1.04

Each cell line was assayed with O=C1NC(=O)[C@@H](c2cn3c4c(cccc24)CCC3)[C@@H]1c1c[nH]c2ccccc12 [Tivantinib] + Cc1nc(NC(=O)N2CCC[C@H]2C(N)=O)sc1-c1ccnc(C(C)(C)C(F)(F)F)c1 [Alpelisib] (partner 2 µM) in the same assay as above. Conditions: first compound 0.01 µM.
Method in brief: as §1

Cell Line	relative viability
PC-3 [JPC-3]	0.993
EKVX	0.912
LCLC-103H	0.905
NCI-H1944	0.79
NCI-H1993	0.682
ABC-1	0.984
NCI-H358	0.911
RERF-LC-KJ	0.839

Same assay, conditions: first compound 0.03162 µM

Cell Line	relative viability
PC-3 [JPC-3]	1.06
EKVX	0.785
LCLC-103H	0.938
NCI-H1944	0.782
NCI-H1993	0.707
ABC-1	0.995
NCI-H358	0.78
RERF-LC-KJ	0.854

Same assay, conditions: first compound 0.1 µM

Cell Line	relative viability
PC-3 [JPC-3]	1.05
EKVX	0.888
LCLC-103H	0.839
NCI-H1944	0.735
NCI-H1993	0.644
ABC-1	0.742
NCI-H358	0.827
RERF-LC-KJ	0.81

Same assay, conditions: first compound 0.3162 µM

Cell Line	relative viability
PC-3 [JPC-3]	0.775
EKVX	0.239
LCLC-103H	0.86
NCI-H1944	0.554
NCI-H1993	0.669
ABC-1	0.825
NCI-H358	0.365
RERF-LC-KJ	0.6
